We go through 24 molecules from ChEMBL document CHEMBL3217516, “Library synthesis and cytotoxicity of a family of 2-phenylacrylonitriles and discovery of an estrogen dependent breast cancer lead compound” (Medchemcomm, 2011).

What all share (format): functional
The subject of one experiment is A2780. In words: Cytotoxicity against human A2780 cells after 72 hrs by MTT assay. As to conditions: A2780, 72 h. For orientation: Tetrazolium dyes change colour on reduction, which living cells bring about.
The nature of experiment [1]: Cytotoxicity against human BE(2)-C cells after 72 hrs by MTT assay.
Experiment [2] can be described thus: Cytotoxicity against human SJ-G2 cells after 72 hrs by MTT assay. The settings on record: SJ-G2, 72 h.
A further experiment deals with SW480. In words: Cytotoxicity against human SW480 cells after 72 hrs by MTT assay. The settings on record: SW480, 72 h.
The next experiment has as its system HT-29. Put plainly: Cytotoxicity against human HT-29 cells after 72 hrs by MTT assay. As to conditions: HT-29, 72 h.
Experiment [3] is described as follows: Cytotoxicity against human MIA cells after 72 hrs by MTT assay.
A further experiment deals with DU-145. In words: Cytotoxicity against human DU145 cells after 72 hrs by MTT assay. The settings on record: DU-145, 72 h.
Experiment [4] is described as follows: Cytotoxicity against human H460 cells after 72 hrs by MTT assay. As to conditions: NCI-H460, 72 h.
The test system of a further experiment is A-431. In words: Cytotoxicity against human A431 cells after 72 hrs by MTT assay. The settings on record: A-431, 72 h.
The test system of a further experiment is MCF7. In words: Cytotoxicity against human MCF7 cells after 72 hrs by MTT assay. The settings on record: MCF7, 72 h.

Usually GI50 stands for the concentration at which growth is held to half of that of the control. Read a low GI50 as greater sensitivity of the cells. Regarding `N#C/C(=C\c1ccc(O)cc1)c1ccc(Cl)c(Cl)c1`, the GI50 in the experiment with A2780 worked out at 20 µM; in [1], 22 µM; in experiment [2] it was 21 µM; in the experiment with SW480, 36 µM; in the experiment on HT-29, 30 µM; in experiment [3], 28 µM. Further, the GI50 in the experiment with DU-145 is 45 µM; in experiment [4] it was 26 µM; in the experiment with A-431 it was 21 µM; in the experiment with MCF7, 23 µM.
`N#C/C(=C\c1ccc(Br)cc1)c1ccc(Cl)c(Cl)c1`: the 50% growth inhibitory concentration (GI50) worked out at 20 µM in the experiment with A2780; 21 µM in [1]; 22 µM in [2]; 22 µM with SW480; 20 µM with HT-29; 21 µM in [3]. Also, the GI50 with DU-145 was 26 µM; in [4] it was 21 µM; in the experiment with A-431 it was 20 µM; in the experiment with MCF7, 16 µM.
Turning to `N#C/C(=C\c1ccc(F)cc1)c1ccc(Cl)c(Cl)c1`, growth in [3] was halved (GI50) at 11 µM.
Regarding `N#C/C(=C/c1ccc(O)cc1)C(=O)c1ccc[nH]1`, the concentration for 50% growth inhibition (GI50) in the experiment with A2780 was less than 10 µM; in [1] it was less than 10 µM; in experiment [2], less than 10 µM; with SW480, less than 10 µM; with HT-29 it was less than 10 µM; in experiment [3], 11 µM. Moreover, the 50% growth inhibitory concentration (GI50) was less than 10 µM in the experiment with DU-145, less than 10 µM in experiment [4], less than 10 µM in the experiment with A-431 and 15 µM in the experiment with MCF7.
Regarding `N#C/C(=C\c1ccc[nH]1)c1ccc(Cl)cc1`, the GI50 in the experiment with A2780 is 18 µM; in [1], 21 µM; in [2], 20 µM; in the experiment with SW480, 22 µM; with HT-29 it was 18 µM; in experiment [3], 38 µM. Also, the GI50 was found to be 37 µM with DU-145, 19 µM in experiment [4], 23 µM in the experiment on A-431 and 4 µM in the experiment on MCF7.
For `N#C/C(=C\c1ccc[nH]1)c1ccccc1`, the GI50 in the experiment on A2780 was 25 µM; in experiment [1], 61 µM; in experiment [2], 46 µM; in the experiment on SW480, 26 µM; with HT-29 it was 41 µM; in [3] it was 81 µM. For the same molecule, the GI50 with DU-145 was greater than 100 µM; in experiment [4], 81 µM; in the experiment on A-431 it was 57 µM; with MCF7 it was 17 µM.
Turning to `N#C/C(=C\c1cc(O)cc(O)c1)c1ccc(Cl)c(Cl)c1`, the GI50 is 93 µM in the experiment with A2780; greater than 100 µM in [1]; 95 µM in experiment [2]; 90 µM in the experiment on SW480; greater than 100 µM with HT-29; greater than 100 µM in experiment [3]. Besides, the GI50 in the experiment on DU-145 was greater than 100 µM; in experiment [4] it was greater than 100 µM; with A-431, 88 µM; in the experiment with MCF7, 28 µM.
In the case of `N#C/C(=C\c1ccncc1)c1ccc(Cl)c(Cl)c1`, the GI50 with A2780 was determined as 18 µM; in experiment [1], 16 µM; in experiment [2] it was 22 µM; in the experiment on SW480, 18 µM; in the experiment on HT-29, 18 µM; in [3] it was 22 µM. Also, the GI50 was found to be 24 µM in the experiment with DU-145, 9.4 µM in [4], 26 µM in the experiment with A-431 and 15 µM in the experiment on MCF7.
`N#C/C(=C\c1ccc[nH]1)c1ccc(F)cc1`: the 50% growth inhibitory concentration (GI50) with A2780 was 25 µM; in experiment [1], 43 µM; in [2] it was 30 µM; in the experiment on SW480, 24 µM; in the experiment with HT-29 it was 31 µM; in experiment [3], 63 µM. Besides, the GI50 in the experiment with DU-145 worked out at 59 µM; in experiment [4], 52 µM; in the experiment with A-431 it was 37 µM; in the experiment on MCF7 it was 15 µM.
With `CC(=O)Oc1ccc(/C=C(\C#N)c2ccc(Cl)c(Cl)c2)cc1`, the 50% growth inhibitory concentration (GI50) was 18 µM in the experiment on A2780; 22 µM in experiment [1]; 21 µM in experiment [2]; 27 µM with SW480; 18 µM in the experiment on HT-29; 38 µM in experiment [3]. Besides, the GI50 with DU-145 was found to be 47 µM; in [4], 33 µM; in the experiment on A-431, 25 µM; in the experiment on MCF7, 25 µM.
For `N#CC(Cc1ccc[nH]1)c1ccc([N+](=O)[O-])cc1` (configuration not stated), the GI50 with A2780 is 29 µM; in experiment [1], 65 µM; in experiment [2], 87 µM; with SW480 it was 70 µM; in the experiment on HT-29, 67 µM; in [3], 82 µM. The GI50 in the experiment with DU-145 is 90 µM; in [4] it was 64 µM; in the experiment on A-431, 78 µM; in the experiment on MCF7, 37 µM.
On to `Cc1ccc(/C=C(/C#N)C(=O)c2ccc[nH]2)cc1`, for which the GI50 stood at 19 µM with A2780; 11 µM in [1]; 20 µM in [2]; 14 µM in the experiment with SW480; 14 µM in the experiment on HT-29; 27 µM in experiment [3]. Further, the GI50 with DU-145 was less than 10 µM; in experiment [4], 11 µM; in the experiment with A-431 it was less than 10 µM; in the experiment with MCF7 it was 39 µM.
As for `N#C/C(=C\c1ccc2ccccc2c1)c1ccc(Cl)c(Cl)c1`, the GI50 worked out at 1.8 µM in the experiment with A2780; 1.9 µM in experiment [1]; 2.3 µM in [2]; 2.3 µM in the experiment with SW480; 1.6 µM with HT-29; 2.1 µM in experiment [3]. The GI50 with DU-145 stood at 2.7 µM; in experiment [4], 1.7 µM; with A-431, 1.8 µM; in the experiment on MCF7, 1.5 µM.
Turning to `Cc1ccc(/C=C(\C#N)c2ccc(Cl)c(Cl)c2)cc1`, the GI50 in the experiment with A2780 is 2 µM; in experiment [1] it was 2.2 µM; in experiment [2] it was 2.1 µM; in the experiment on SW480, 2.3 µM; in the experiment on HT-29 it was 1.6 µM; in experiment [3], 2 µM. The GI50 worked out at 2.2 µM in the experiment on DU-145, 2.1 µM in experiment [4], 1.8 µM with A-431 and 2.2 µM in the experiment with MCF7.
With `N#C/C(=C/c1ccc([N+](=O)[O-])cc1)C(=O)c1ccc[nH]1`, the 50% growth inhibitory concentration (GI50) in the experiment on A2780 is 19 µM; in experiment [1], 19 µM; in [2] it was less than 10 µM; in the experiment on SW480, less than 10 µM; in the experiment on HT-29, less than 10 µM; in experiment [3] it was less than 10 µM. In addition, the GI50 in the experiment on DU-145 is less than 10 µM; in [4] it was less than 10 µM; in the experiment with A-431, less than 10 µM; with MCF7, 19 µM.
Consider `N#CC(Cc1ccc[nH]1)c1ccc(Cl)cc1` (configuration not stated), for which the 50% growth inhibitory concentration (GI50) with A2780 was found to be 26 µM; in experiment [1], 45 µM; in experiment [2], 52 µM; in the experiment with SW480 it was 53 µM; in the experiment on HT-29, 37 µM; in experiment [3], 58 µM. Also, the GI50 in the experiment with DU-145 came out at 60 µM; in [4] it was 58 µM; in the experiment with A-431 it was 58 µM; in the experiment on MCF7 it was 26 µM.
As to `N#C/C(=C\c1ccc[nH]1)c1ccc([N+](=O)[O-])cc1`, the GI50 was 18 µM in the experiment on A2780; 22 µM in experiment [1]; 24 µM in experiment [2]; 24 µM in the experiment with SW480; 25 µM with HT-29; 34 µM in experiment [3]. The GI50 in the experiment on DU-145 was 26 µM; in experiment [4] it was 32 µM; with A-431 it was 27 µM; in the experiment on MCF7, 18 µM.
Turning to `COc1ccc(/C=C(\C#N)c2ccc(Cl)c(Cl)c2)cc1`, in [3], growth was halved (GI50) at 0.7 µM.
In the case of `CCCC/C=C(\C#N)c1ccc(Cl)c(Cl)c1`, the GI50 in the experiment with A2780 worked out at 24 µM; in experiment [1] it was 73 µM; in experiment [2], 70 µM; in the experiment on SW480 it was 68 µM; in the experiment with HT-29, 53 µM; in experiment [3], 95 µM. Also, the GI50 in the experiment on DU-145 is 87 µM; in experiment [4] it was 100 µM; in the experiment with A-431, 88 µM; in the experiment on MCF7, 49 µM.
With `N#C/C(=C/c1ccc2ccccc2c1)C(=O)c1ccc[nH]1`, the GI50 (in the experiment on A2780; in experiment [1]; in [2]; with SW480; in the experiment on HT-29; in [3]) was less than 10 µM each time. Besides, the GI50 in the experiment with DU-145 was less than 10 µM; in [4], less than 10 µM; in the experiment on A-431, less than 10 µM; in the experiment on MCF7 it was 12 µM.
On to `N#C/C(=C/c1ccc(Cl)cc1)C(=O)c1ccc[nH]1`, for which the GI50 with A2780 came to 75 µM; in experiment [1], 63 µM; in [2], 53 µM; with SW480, 68 µM; in the experiment on HT-29, 54 µM; in experiment [3], 59 µM. Also, the GI50 with DU-145 stood at 32 µM; in experiment [4], 38 µM; in the experiment on A-431 it was 31 µM; with MCF7 it was 84 µM.
With `N#C/C(=C/c1ccc(Cl)c(Cl)c1)C(=O)c1ccc[nH]1`, the GI50 was less than 10 µM in the experiment with A2780; 14 µM in experiment [1]; 10 µM in [2]; less than 10 µM in the experiment with SW480; less than 10 µM with HT-29; less than 10 µM in experiment [3]. Moreover, the GI50 in the experiment on DU-145 is less than 10 µM; in [4] it was less than 10 µM; with A-431, less than 10 µM; in the experiment with MCF7 it was 14 µM.
With `COc1ccc(/C=C(/C#N)C(=O)c2ccc[nH]2)cc1`, the GI50 (with A2780; in experiment [1]; in [2]; with SW480; in the experiment with HT-29; in experiment [3]) was less than 10 µM in each case. For the same molecule, the GI50 with DU-145 was less than 10 µM; in experiment [4], 24 µM; with A-431 it was 13 µM; in the experiment with MCF7, 22 µM.
`N#CC(Cc1ccc[nH]1)c1ccc(F)cc1` (configuration not stated): the GI50 in the experiment on A2780 amounted to 69 µM; in experiment [1], 75 µM; in experiment [2], 86 µM; in the experiment with SW480 it was 78 µM; with HT-29, 73 µM; in experiment [3] it was 90 µM. The GI50 came to 91 µM with DU-145, 88 µM in [4], 89 µM in the experiment on A-431 and 65 µM with MCF7.
